Values quoted from earlier work as cited in US20200306252A1, “COMPOSITION FOR PREVENTING AND/OR TREATING DEMENTIA” (priority 2019, published 2020).

Tests used:
[1] = system: neural cells; settings: cellular experiments
[2] = system: β-amyloid; settings: cellular experiments
[3] = system: patients with dementia; settings: clinical experiments; curcumin alone

For `COc1cc(/C=C/C(=O)CC(=O)/C=C/c2ccc(O)c(OC)c2)ccc1O` [curcumin], the bioavailability is given as “poor”, the protecting neural cells [1] is given as “effective” and the “reducing β-amyloid aggregation” value [2] is given as “effective”. The “alleviation of the symptoms of patients with dementia” value [3] was “cannot effectively alleviate the symptoms”.
